What is called Ki is the equilibrium dissociation constant of an inhibitor or competing ligand from its target. Low readings indicate a stronger hold on the target, high ones a looser hold on the target.

The record followed here is patent US20110275630A1, “ISO[…] INHIBITORS” (ABBOTT LABORATORIES, priority 2003, published 2011).

In this assay the target is T1, ROCK 2 (Homo sapiens, UniProt O75116).
T1 construct: ROCK1 (1.5 nM; Invitrogen) or ROCK2 (0.2 nM; Upstate) catalytic domains; purchased Upstate
Briefly: ROCK kinase activity assays ([33P]-ATP FlashPlate assay / HTRF assay). The format is biochemical. From the text:
[33P]-ATP assay: ROCK activity is initially determined using a radioactive FlashPlate-based assay.
A general note: In TR-FRET formats the signal depends on donor and acceptor labels being close together.

T1 sequence (O75116 92-354 limits assumed, species assumed): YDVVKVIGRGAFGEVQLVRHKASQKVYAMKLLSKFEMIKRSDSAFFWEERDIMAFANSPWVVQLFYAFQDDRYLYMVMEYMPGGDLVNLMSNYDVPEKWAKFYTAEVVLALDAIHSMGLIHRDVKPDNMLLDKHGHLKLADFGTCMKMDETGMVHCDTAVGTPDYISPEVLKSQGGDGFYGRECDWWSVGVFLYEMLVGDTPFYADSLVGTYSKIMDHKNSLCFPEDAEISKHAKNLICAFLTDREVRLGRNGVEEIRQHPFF

Turning to `O=C(Nc1ccc(-c2cccc3c2CNC3=O)cc1)c1cc2cc(F)ccc2[nH]1` [Example 131, 5-fluoro-N-[4-(1-oxo-2,3-dihydro-1H-isoindol-4-yl)phenyl]-1H-indole-2-carboxamide], the affinity corresponds to a Ki of 32.6 nM.
Then `O=C(Nc1ccc(-c2cccc3c2CNC3=O)cc1)c1cc2ccccc2o1` [Example 132, N-[4-(1-oxo-2,3-dihydro-1H-isoindol-4-yl)phenyl]-1-benzofuran-2-carboxamide], with 66.1 nM.
Then `O=C(Nc1ccc(-c2cccc3c2CNC3=O)cc1)c1ccc2c(c1)OCCO2` [Example 134, N-[4-(1-oxo-2,3-dihydro-1H-isoindol-4-yl)phenyl]-2,3-dihydro-1,4-benzodioxine-6-carboxamide], with 331 nM.
Then `O=C(Nc1ccc(-c2cccc3c2CNC3=O)cc1)c1cccc(S(=O)(=O)N2CCOCC2)c1` [Example 135, 3-(morpholin-4-ylsulfonyl)-N-[4-(1-oxo-2,3-dihydro-1H-isoindol-4-yl)phenyl]benzamide], with 8.75 nM; and `O=C(Nc1ccc(-c2cccc3c2CNC3=O)cc1)c1ccc(N2CCOCC2)nc1` [Example 136, 6-(morpholin-4-yl)-N-[4-(1-oxo-2,3-dihydro-1H-isoindol-4-yl)phenyl]pyridine-3-carboxamide], with 201 nM.
With `NC1CCN(S(=O)(=O)c2cccc(C(=O)Nc3ccc(-c4cccc5c4CNC5=O)cc3)c2)CC1` [Example 137, 3-[(4-aminopiperidin-1-yl)sulfonyl]-N-[4-(1-oxo-2,3-dihydro-1H-isoindol-4-yl)phenyl]benzamide], the inhibition constant (Ki) turned out to be 12.8 nM.
For `O=C1NCc2c1cccc2-c1ccc(Nc2nc3ccc(Cl)cc3o2)cc1` [Example 139, 4-{4-[(6-chloro-1,3-benzoxazol-2-yl)amino]phenyl}-2,3-dihydro-1H-isoindol-1-one], affinity was put at a Ki of 153 nM.
Take `O=C(Nc1ccc(-c2cccc3c2CNC3=O)cc1)c1cc2ccccc2[nH]1` [Example 140, N-[4-(1-oxo-2,3-dihydro-1H-isoindol-4-yl)phenyl]-1H-indole-2-carboxamide]: the affinity, expressed as Ki, was 27.4 nM.
